The values below come from patent publication US20210069169A1, “PHARMACEUTICAL COMPOSITIONS” (priority 2007, published 2021).

The subject of data set [1] is postmenopausal women. As to conditions: cited from earlier work.
Data set [2] in a line: Example 2: serum steroids after oral DHEA capsules or percutaneous DHEA cream or gel.
From the text: Thirty-six healthy 60-70-year-old postmenopausal women participated in the study after IRB approval and having given their written informed consent. Body weight was within ±20% of normal body weight according to Metropolitan Life Tables.
This study was a randomized open-label trial of 12 subjects per arm. After written informed consent was obtained and women were found eligible, each subject was randomized to receive DHEA by cream, get or orally. Daily, before breakfast, for 14 days, subjects received, at the research clinic, either 4 g of 10% DHEA gel or 4 g of 10% DHEA cream applied on a total 30 cm×30 cm area of the thighs or two 50 mg capsules of DHEA orally before breakfast.
Blood sampling was performed at 08:00-09:00 h at screening and before application of DHEA, on the first day of dosing, as well as on days 2, 4, 7, 10 and 14. On the 1st and 14th days, blood samples were obtained at 0.5 h, 1 h, 1.5 h, 2 h, 3 h, 4 h, 5 h, 6 h, 7 h, 8 h, 12 h and 24 h following DHEA administration. […] Serum steroid analysis
DHEA, DHEA-S, androst-5-ene-3β,17β-diol (5-diol), testosterone, androstenedione (4-dione), 17β-estradiol (E2), estrone (E1), estrone sulfate (E1-S), androsterone glucuronide (ADT-G), and androstane-3,17β-diol glucuronide (3 α-diol-G) were measured by gas chromatography/mass spectrometry (DHEA, 5-diol, 4-dione, testosterone, E1 and E2) using electron impact or chemical ionization and by liquid chromatography/tandem mass spectrometry using turboionspray (DHEA-S, E1-S, ADT-G and 3α-diol-G) as described (Labrie, Bélanger et a., 2006; Labrie, Bélanger, et al, 2007b and Swanson et al. 2007).
On days 1 and 14, the area under the curve of the serum concentration of each steroid was measured between 0 h and 24 h (AUC0-24 h). The areas under the curves were calculated by a linear trapezoidal method (model-independent). The relative bioavailability of the DHEA gel, DHEA cream and DHEA capsules was based on the mean difference in the log-transformed AUC values, All calculations were performed with the SAS software (SAS Institute, Cary, N.C., USA).
Data set [3] has as its system endometrium. Kind of data set: ERC-210: endometrial biopsy. In kind it is in vivo, postmenopausal women. As to conditions: 3 months intravaginal; biopsies before and after 12 weeks. How it is done: Endometrial biopsy was performed at screening and at month 3 at end of study. All biopsies were examined by the same pathologist at the central laboratory (Dr. Robert Dubé, Department of cytology-pathology, Enfant-Jésus Hospital, Quebec City, Canada).

In data set [4] the test system is postmenopausal women suffering from vaginal atrophy. Kind of data set: ERC-210: vaginal examination (secretions, color, epithelial integrity, thickness). In kind it is in vivo. As to conditions: 2, 4, 8 and 12 weeks. From the text: At the same time intervals of 2, 4, 8 and 12 weeks, the gynecologist or physician in charge of the study at each site performed a vaginal exam to evaluate the degree of severity (none, mild, moderate or severe, analyzed using values of 0, 1, 2 and 3, respectively) for the main signs of vaginal atrophy, namely vaginal secretions, vaginal color, vaginal epithelial integrity and vaginal epithelial surface thickness. […] In fact. the beneficial effects observed by the gynecologist and or physician are almost superimposable to those self-reported by women on their most bothersome symptoms.
Vaginal examination was performed at screening and then at day 1 and at 2, 4, 8 and 12 weeks. Vaginal secretions, vaginal color, vaginal epithelial integrity and vaginal epithelial surface thickness were evaluated according to the following degrees of severity: none, mild, moderate or severe.

The nature of data set [5]: ERC-213: serum DHEA and eleven metabolites after daily intravaginal DHEA suppositories. The data set is classed as in vivo, postmenopausal women. As to conditions: highest dose (Table 2). From the text: The primary objective of that study was the evaluation of the systemic bioavailability of DHEA and its metabolites following daily intravaginal application of suppositories at four different DHEA concentrations. This study was a randomized, placebo-controlled and double-blind trial of 10-subjects per arm.

For data set [6] the following is noted: cited from earlier work.
Setting [7] is: oral 150 mg (Buster et al. 1992).
Setting [8] is: oral 300 mg (Buster et al. 1992).

Read-outs that look alike come from different tables or passages of the source.

For `CCCCCCCCCCC(=O)O[C@H]1CC[C@H]2[C@@H]3CCC4=CC(=O)CC[C@]4(C)[C@H]3CC[C@]12C` [testosterone undecanoate], in data set [1] (40 mg every second day), the “Effect on the endometrium” value is “no effect on the endometrium”.
Take `C[C@]12CC[C@@H]3c4ccc(O)cc4CC[C@H]3[C@@H]1CC[C@@H]2O` [E2, 17β-estradiol]: the “% of cases with persisting dyspareunia” value in data set [1] (25 μg intravaginally, 12 months) is reported as 12.4%. Further, the “% of patients with pH less than 5” value in data set [1] (12 weeks intravaginal 25 μg E2 (Bachmann et al. 2008)) is listed as 51%.
With `C[C@]12CC[C@H](O)CC1=CC[C@@H]1[C@@H]2CC[C@]2(C)C(=O)CC[C@@H]12` [DHEA, dehydroepiandrosterone], in data set [2] (female, human, serum, po), the “Higher amount of circulating DHEA-S at same DHEA exposure, oral vs percutaneous” value is 6.7-9.0 fold and the “Transformation of DHEA into 4-dione, oral vs percutaneous” value was 2.70-3.76 times. In addition, the “Efficacy of transformation into active androgens” value in data set [2] (percutaneous DHEA (DHEA change 406%)) turned out to be 52%. Besides, the Endometrial histology entry in data set [3] was “no effect on endometrial histology”. Also, the “Signs of vaginal atrophy at vaginal exam” value in data set [4] is recorded as “highly statistically significant improvement of all four signs of vaginal atrophy”. For the same compound, the “Average serum DHEA” value in data set [5] was 4.76 ± 0.42 ng/mL.
Turning to `C[C@]12CC[C@H](O)CC1=CC[C@@H]1[C@@H]2CC[C@]2(C)C(=O)CC[C@@H]12` [micronized DHEA], in data set [6] (setting [7]), the “Maximal serum DHEA-S” value was around 10 µg/mL and the Maximal serum testosterone is around 1.6 ng/mL. Also, in data set [6] (setting [8]), the “Maximal serum DHEA” value was around 15 ng/mL and the Maximal serum testosterone is around 2.75 ng/mL.
`CCCCC(=O)O[C@H]1CC[C@H]2[C@@H]3CCc4cc(O)ccc4[C@H]3CC[C@]12C` [estradiol valerate]: the “Increase of Ki labeling in endometrium” value in data set [1] (2 mg/day, 3 months) is 50%.
